The values that follow come from patent publication US8426409B2, “Inhibitors of Bruton's tyrosine kinase” (Roche Palo Alto LLC, priority 2008, dated 2013).

Molecules are shown by their SMILES.

The assay addresses T1, Btk enzyme (His-tagged, full-length) (Homo sapiens, UniProt Q06187).
T1 construct: 5-10 nM Btk enzyme (His-tagged, full-length); His
As to the kind of experiment: Bruton's Tyrosine Kinase (Btk) Inhibition Assay (33P filtration capture). The class given is biochemical. Particulars: 100 μM ATP, 30 μM biotinylated peptide substrate, 30 min at 30° C. An excerpt:
The assay is a capture of radioactive ^33P phosphorylated product through filtration. The interactions of Btk, biotinylated SH2 peptide substrate (Src homology), and ATP lead to phosphorylation of the peptide substrate. Biotinylated product is bound streptavidin sepharose beads. All bound, radiolabeled products are detected by scintillation counter.
Plates assayed are 96-well polypropylene (Greiner) and 96-well 1.2 μm hydrophilic PVDF filter plates (Millipore). Concentrations reported here are final assay concentrations: 10-100 μM compounds in DMSO (Burdick and Jackson), 5-10 nM Btk enzyme (His-tagged, full-length), 30 μM peptide substrate (Biotin-Aca-AAAEEIYGEI-NH2), 100 μM ATP (Sigma), 8 mM imidazole (Sigma, pH 7.2), 8 mM glycerol-2-phosphate (Sigma), 200 μM EGTA (Roche Diagnostics), 1 mM MnCl2 (Sigma), 20 mM MgCl2 (Sigma), 0.1 mg/ml BSA (Sigma), 2 mM DTT (Sigma), 1 μCi ^33P ATP (Amersham), 20% streptavidin sepharose beads (Amersham), 50 mM EDTA (Gibco), 2 M NaCl (Gibco), 2 M NaCl w/1% phosphoric acid (Gibco), microscint-20 (Perkin Elmer).
IC50 determinations are calculated from 10 data points per compound utilizing data produced from a standard 96-well plate assay template. […] Background was counted in the absence of peptide substrate. Total activity was determined in the presence of peptide substrate. […]

T1 sequence (Q06187 whole entry): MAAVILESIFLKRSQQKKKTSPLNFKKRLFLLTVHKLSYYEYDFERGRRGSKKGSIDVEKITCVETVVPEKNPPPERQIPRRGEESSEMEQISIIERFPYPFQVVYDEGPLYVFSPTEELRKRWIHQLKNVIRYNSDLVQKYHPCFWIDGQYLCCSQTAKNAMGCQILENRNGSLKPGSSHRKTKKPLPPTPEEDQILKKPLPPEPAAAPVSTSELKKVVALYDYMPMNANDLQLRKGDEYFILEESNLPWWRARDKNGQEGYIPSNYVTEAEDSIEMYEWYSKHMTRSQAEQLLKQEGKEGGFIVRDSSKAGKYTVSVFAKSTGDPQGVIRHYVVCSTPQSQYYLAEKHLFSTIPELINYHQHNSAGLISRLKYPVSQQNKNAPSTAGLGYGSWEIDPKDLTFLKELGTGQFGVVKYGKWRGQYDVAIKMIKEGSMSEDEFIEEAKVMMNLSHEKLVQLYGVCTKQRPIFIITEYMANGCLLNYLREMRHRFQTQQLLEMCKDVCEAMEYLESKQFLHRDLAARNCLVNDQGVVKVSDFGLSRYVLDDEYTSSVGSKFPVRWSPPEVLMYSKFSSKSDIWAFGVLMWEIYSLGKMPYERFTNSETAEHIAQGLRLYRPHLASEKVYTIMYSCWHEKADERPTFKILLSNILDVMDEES

In turn, `O=C(c1ccc(Nc2nc(-c3cccc(N4CCc5cc(C6CC6)ccc5C4=O)c3CO)cn3ccnc23)cc1)N1CCOCC1` [II-1, 6-Cyclopropyl-2-(2-hydroxymethyl-3-{8-[4-(morpholine-4-carbonyl)-phenylamino]-imidazo[1,2-a]pyrazin-6-yl}-phenyl)-3,4-dihydro-2H-isoquinolin-1-one] showed a concentration for half-maximal inhibition (IC50) of 25 nM.

Regarding `O=C1c2ccc(C3CC3)cc2CCN1c1cccc(-c2cn3ccnc3c(Nc3ccc(CN4CCOCC4)cc3)n2)c1CO` [II-2, 6-Cyclopropyl-2-{2-hydroxymethyl-3-[8-(4-morpholin-4-ylmethyl-phenylamino)-imidazo[1,2-a]pyrazin-6-yl]-phenyl}-3,4-dihydro-2H-isoquinolin-1-one], half-maximal inhibition (IC50) was put at 37 nM.
